Data on five molecules can be found in article PMC8001250 (Biomolecules, 2021).

In brackets after ≈: the same amount, converted by molar mass. Entries after “also recorded” stand apart in the source; their conditions may differ. Where two headings read alike, the source gives them in different places. Non-standard residues stand in square brackets, D forms with d. Residues, ends and D or L forms follow the SMILES beside them. Ala(azulen-1-yl) = N[C@@H](Cc1ccc2cccccc1-2)C(=O)O

Series [1] concerns A. baumannii ATCC 19609. It is filed as cell-based. As to conditions: ATCC 19609, 18 h. On the procedure: (§1) Bacteria were streaked from frozen glycerol stocks onto LB agar plates (E. coli D31, S. aureus ATCC 35556, P. aeruginosa PA-01, A. baumannii ATCC 19609). The plates were incubated at 37 °C for ~18 h to allow growth. An individual colony from each plate was transferred into individual sterile tubes containing 3 mL of Muller Hinton (MH) broth and subsequently incubated for 18 h with shaking (225 rpm) at 37 °C. An aliquot of this culture was then diluted with fresh MH broth (1:250) and further incubated with shaking (225 rpm) at 37 °C until an OD600 of 0.2–0.4 was reached. This mid-log culture was then diluted to 5 × 10^5 CFU/mL in fresh MH broth. Serially diluted peptides were dispensed in a 96-well plate such that the final concentration in each well would be in the range of 15 µM to 0.234 µM. Then, 90 µL of the freshly diluted culture was transferred to the 96-well plate, yielding a final volume of 100 µL. The 96-well plate was covered and transferred to a humidified incubator at 37 °C for 18 h. The growth and inhibition of bacterial growth were determined by measuring OD600 directly in the plate and comparing to an untreated control. The Minimum Bactericidal Concentration (MBC) was determined by transferring 1 µL of culture from each well of the MIC plate onto fresh LB agar plates and allowed to incubate overnight at 37 °C.

Series [2] relates to S. aureus ATCC 35556. It is filed as cell-based. The conditions noted are these: ATCC 35556, 18 h. The method, then: as §1
Series [3] concerns P. aeruginosa PA-01. It is filed as cell-based. As to conditions: PA-01, 18 h. The method, then: as §1
The next series deals with trypsin. Put plainly: trypsin (50 µL of 0.001 mg/mL solution) in buffer (50 mM sodium phosphate, 100 mM NaCl, pH 7.0). The conditions noted are these: room temperature, up to 4 hours.
In series [4] the test system is S. aureus ATCC 35556. The conditions noted are these: previously reported activity of the parent peptide; ref [30]; cited from earlier work. An excerpt: Table 2 Bacterial growth inhibition/killing concentration (µM). | column: S. aureus
For another series, the system named is E. coli D31. The conditions noted are these: previously reported activity of the parent peptide; ref [30]; cited from earlier work. The text has this: Table 2 Bacterial growth inhibition/killing concentration (µM). | column: E. coli
In series [5] the test system is P. aeruginosa PA-01. As to conditions: previously reported activity of the parent peptide; ref [30]; cited from earlier work. An excerpt: Table 2 Bacterial growth inhibition/killing concentration (µM). | column: P. aeruginosa
Series [6] relates to A. baumannii ATCC 19609. The conditions noted are these: previously reported activity of the parent peptide; ref [30]; cited from earlier work. The text has this: Table 2 Bacterial growth inhibition/killing concentration (µM). | column: A. baumannii

With `CC[C@H](C)[C@H](NC(=O)[C@H](Cc1c[nH]c2ccccc12)NC(=O)[C@@H](NC(=O)[C@H](Cc1ccc2cccccc1-2)NC(=O)[C@@H]1CCCN1C(=O)[C@@H](NC(=O)[C@H](C)N)[C@@H](C)CC)[C@@H](C)CC)C(=O)N[C@@H](Cc1c[nH]c2ccccc12)C(=O)N[C@@H](CCCNC(=N)N)C(=O)N[C@@H](CC(C)C)C(=O)N[C@@H](CC(C)C)C(=O)N[C@@H](CCCNC(=N)N)C(=O)N[C@@H](CCCCN)C(=O)NCC(N)=O` [Peptide Z4] (H-AIP[Ala(azulen-1-yl)]IWIWRLLRKG-NH2), in the series with A. baumannii ATCC 19609 [1], the “MBC, A. baumannii” value came to 7.50 µM (≈ 13.6 µg/mL) and the “MIC, A. baumannii” value amounted to 7.50 µM (≈ 13.6 µg/mL). In the series on S. aureus ATCC 35556 [2], the “MBC, S. aureus” value was determined as 7.50 µM (≈ 13.6 µg/mL) and the “MIC, S. aureus” value amounted to 7.50 µM (≈ 13.6 µg/mL). Besides, in the series on P. aeruginosa PA-01 [3], the “MBC, P. aeruginosa” value is greater than 15 µM and the “MIC, P. aeruginosa” value was greater than 15 µM.

Take `CC[C@H](C)[C@H](NC(=O)[C@H](Cc1ccc2cccccc1-2)NC(=O)[C@@H](NC(=O)[C@H](Cc1c[nH]c2ccccc12)NC(=O)[C@@H]1CCCN1C(=O)[C@@H](NC(=O)[C@H](C)N)[C@@H](C)CC)[C@@H](C)CC)C(=O)N[C@@H](Cc1c[nH]c2ccccc12)C(=O)N[C@@H](CCCNC(=N)N)C(=O)N[C@@H](CC(C)C)C(=O)N[C@@H](CC(C)C)C(=O)N[C@@H](CCCNC(=N)N)C(=O)N[C@@H](CCCCN)C(=O)NCC(N)=O` [Peptide Z6] (H-AIPWI[Ala(azulen-1-yl)]IWRLLRKG-NH2): in the series with A. baumannii ATCC 19609 [1], the “MBC, A. baumannii” value is 7.50 µM (≈ 13.6 µg/mL) and the “MIC, A. baumannii” value is given as 3.75 µM (≈ 6.82 µg/mL). For the same molecule, in the series on S. aureus ATCC 35556 [2], the “MBC, S. aureus” value is reported as 1.88 µM (≈ 3.42 µg/mL) and the “MIC, S. aureus” value was determined as 1.88 µM (≈ 3.42 µg/mL). In addition, in the series on P. aeruginosa PA-01 [3], the “MBC, P. aeruginosa” value is reported as greater than 15 µM and the “MIC, P. aeruginosa” value is greater than 15 µM.

On to `CC[C@H](C)[C@H](NC(=O)[C@H](Cc1c[nH]c2ccccc12)NC(=O)[C@@H](NC(=O)[C@H](Cc1c[nH]c2ccccc12)NC(=O)[C@@H]1CCCN1C(=O)[C@@H](NC(=O)[C@H](C)N)[C@@H](C)CC)[C@@H](C)CC)C(=O)N[C@@H](Cc1ccc2cccccc1-2)C(=O)N[C@@H](CCCNC(=N)N)C(=O)N[C@@H](CC(C)C)C(=O)N[C@@H](CC(C)C)C(=O)N[C@@H](CCCNC(=N)N)C(=O)N[C@@H](CCCCN)C(=O)NCC(N)=O` [Peptide Z8] (H-AIPWIWI[Ala(azulen-1-yl)]RLLRKG-NH2), for which, in the series with A. baumannii ATCC 19609 [1], the “MBC, A. baumannii” value is 7.50 µM (≈ 13.6 µg/mL) and the “MIC, A. baumannii” value turned out to be 7.50 µM (≈ 13.6 µg/mL). In the series with S. aureus ATCC 35556 [2], the “MBC, S. aureus” value is 15.00 µM (≈ 27.3 µg/mL) and the “MIC, S. aureus” value came to 7.50 µM (≈ 13.6 µg/mL). Besides, in the series on P. aeruginosa PA-01 [3], the “MBC, P. aeruginosa” value is reported as greater than 15 µM and the “MIC, P. aeruginosa” value was greater than 15 µM.

Consider AIPWIWIWRLLRKG, for which the fragment found result with trypsin was “AIPWIWIWR; also recorded: AIPWIWIWRLLR”.

Consider H-AIPWIWIWRLLRKG-NH2 [WWW], for which, in the series on S. aureus ATCC 35556 [4], the “MBC, S. aureus” value is recorded as 3.75 µM and the “MIC, S. aureus” value is given as 3.75 µM. In the series with E. coli D31, the “MBC, E. coli” value is reported as 7.50 µM and the “MIC, E. coli” value is listed as 7.50 µM. In addition, in the series with P. aeruginosa PA-01 [5], the “MBC, P. aeruginosa” value is listed as greater than 15 µM and the “MIC, P. aeruginosa” value is recorded as 15.00 µM. Further, in the series on A. baumannii ATCC 19609 [6], the “MBC, A. baumannii” value was 3.75 µM and the “MIC, A. baumannii” value is 3.75 µM.
